In PubChem BioAssay (NCI):
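The compound was tested at five concentrations on cells cultured in 96-well plates, with a 48-hour exposure period. The concentration for 50% growth inhibition is given as GI50. TGI: total growth inhibition.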

Assays:
Experiment in all cases: NCI tumour cell line growth inhibition, 48 h
[1] = system: A498 renal
[2] = system: SF-268 CNS
[3] = system: MALME-3M melanoma
[4] = system: EKVX NSCLC
[5] = system: CCRF-CEM leukemia
[6] = system: ACHN renal
[7] = system: SNB-19 CNS
[8] = system: OVCAR-5 ovarian
[9] = system: KM12 colon
[10] = system: A549 NSCLC
[11] = system: SNB-75 CNS
[12] = system: OVCAR-3 ovarian
[13] = system: MOLT-4 leukemia
[14] = system: HCC-2998 colon
[15] = system: BT-549 breast
[16] = system: HT29 colon
[17] = system: SN12C renal
[18] = system: NCI-H226 lung
[19] = system: HCT-15 colon
[20] = system: SK-MEL-2 melanoma
[21] = system: HOP-62 NSCLC
[22] = system: SK-OV-3 ovarian
[23] = system: NCI-H460 lung
[24] = system: SK-MEL-28 melanoma
[25] = system: UO-31 renal
[26] = system: OVCAR-8 ovarian
[27] = system: SK-MEL-5 melanoma
[28] = system: NCI-H23 lung
[29] = system: PC-3 prostate
[30] = system: MDA-MB-231 breast
[31] = system: SR leukemia
[32] = system: OVCAR-4 ovarian
[33] = system: RPMI-8226 leukemia
[34] = system: 786-0 renal
[35] = system: HS 578T breast
[36] = system: HOP-92 NSCLC
[37] = system: SF-539 CNS
[38] = system: IGROV1 ovarian
[39] = system: UACC-62 melanoma
[40] = system: NCI/ADR-RES ovarian
[41] = system: RXF 393 renal
[42] = system: TK-10 renal
[43] = system: HL-60(TB) leukemia
[44] = system: CAKI-1 renal
[45] = system: SW-620 colon
[46] = system: DU-145 prostate
[47] = system: MDA-MB-435
[48] = system: UACC-257 melanoma
[49] = system: SF-295 CNS
[50] = system: U251 CNS
[51] = system: K-562 leukemia

CC(=O)Nc1ccc(NC(=O)Nc2cccc(-c3nc(-c4ccc(NC(=O)c5cccnc5)cc4Cl)no3)c2)cc1C(F)(F)F gave a GI50 [1] of 0.435 µM, a TGI [1] of 1.51 µM and a GI50 [2] of 1.1 µM. The TGI [2] was 3.38 µM, the GI50 [3] was 0.479 µM and the TGI [3] was 1.74 µM. The GI50 [4] was 1.4 µM, the TGI [4] was 9.16 µM and the GI50 [5] was 0.395 µM. For the same compound, the TGI [5] was over 100 µM, the GI50 [6] was 6.04 µM and the TGI [6] was over 100 µM. It also gave a GI50 [7] of 0.477 µM, a TGI [7] of 2.15 µM and a GI50 [8] of 0.987 µM. The TGI [8] was 2.64 µM, the GI50 [9] was 0.438 µM and the TGI [9] was 1.79 µM. The GI50 [10] was 1.07 µM, the TGI [10] was 4.43 µM and the GI50 [11] was 0.217 µM. The TGI [11] was 0.814 µM, the GI50 [12] was 0.382 µM and the TGI [12] was 1.42 µM. The GI50 [13] was 0.62 µM, the TGI [13] was 3 µM and the GI50 [14] was 0.998 µM. For the same compound, the TGI [14] was 2.56 µM, the GI50 [15] was 1.12 µM and the TGI [15] was 3.04 µM. The GI50 [16] was 0.38 µM, the TGI [16] was 1.69 µM and the GI50 [17] was 0.685 µM. It also gave a TGI [17] of 2.12 µM, a GI50 [18] of 0.729 µM and a TGI [18] of 2.24 µM. The GI50 [19] was 2.08 µM, the TGI [19] was over 100 µM and the GI50 [20] was 1.27 µM. For the same compound, the TGI [20] was 3.29 µM, the GI50 [21] was 0.739 µM and the TGI [21] was 2.7 µM. It also gave a GI50 [22] of 1.29 µM, a TGI [22] of 3.03 µM and a GI50 [23] of 0.411 µM. The TGI [23] was 1.48 µM, the GI50 [24] was 0.89 µM and the TGI [24] was 2.2 µM. It also gave a GI50 [25] of 4.3 µM, a TGI [25] of over 35.7 µM and a GI50 [26] of 0.712 µM. For the same compound, the TGI [26] was 3.25 µM, the GI50 [27] was 0.612 µM and the TGI [27] was 1.93 µM. The GI50 [28] was 0.601 µM, the TGI [28] was 2.19 µM and the GI50 [29] was 0.477 µM. It also gave a TGI [29] of 2.18 µM, a GI50 [30] of 0.658 µM and a TGI [30] of 2.33 µM. For the same compound, the GI50 [31] was 0.296 µM, the TGI [31] was 2.35 µM and the GI50 [32] was 1.07 µM. For the same compound, the TGI [32] was 2.62 µM, the GI50 [33] was 0.538 µM and the TGI [33] was 2.9 µM. The GI50 [34] was 1.12 µM, the TGI [34] was 2.72 µM and the GI50 [35] was 0.503 µM. For the same compound, the TGI [35] was 2.99 µM, the GI50 [36] was 1.28 µM and the TGI [36] was 3.01 µM. For the same compound, the GI50 [37] was 0.341 µM, the TGI [37] was 1.25 µM and the GI50 [38] was 0.739 µM. It also gave a TGI [38] of 2.34 µM, a GI50 [39] of 0.412 µM and a TGI [39] of 1.63 µM. For the same compound, the GI50 [40] was over 100 µM, the TGI [40] was over 100 µM and the GI50 [41] was 0.359 µM. For the same compound, the TGI [41] was 1.13 µM, the GI50 [42] was 1.99 µM and the TGI [42] was 4.67 µM. It also gave a GI50 [43] of 0.307 µM, a TGI [43] of 1.13 µM and a GI50 [44] of 0.57 µM. For the same compound, the TGI [44] was 1.97 µM, the GI50 [45] was 0.43 µM and the TGI [45] was 1.86 µM. The GI50 [46] was 0.519 µM, the TGI [46] was 4.32 µM and the GI50 [47] was 0.174 µM. It also gave a TGI [47] of 0.406 µM, a GI50 [48] of 1.13 µM and a TGI [48] of 2.93 µM. The GI50 [49] was 0.454 µM, the TGI [49] was 1.37 µM and the GI50 [50] was 0.564 µM. It also gave a TGI [50] of 2.26 µM, a GI50 [51] of 0.32 µM and a TGI [51] of 1.76 µM.
